How the values were obtained:
in vitro [1] = details: human, liver microsomes
in vitro [2] = details: mouse, liver microsomes
in vivo = details: Crl:CD(ICR), mouse, brain/plasma, po, 30 mg/kg
physchem = details: octanol/phosphate buffered saline, pH 7.4

Row | remaining at 0.5 h, 0.1 µM (in vitro [1]) [%] | remaining at 0.5 h, 0.1 µM (in vitro [2]) [%] | Kp (in vivo) | logD (physchem) | SMILES
1 | 27 | 4.5 | 0.55 | 2.3 | C[C@]1(c2cc(NC(=O)c3cnc(OCF)cn3)ccc2F)N=C(N)SCC12CCC(F)(F)CC2
2 | 51 | 5 |  | 1.2 | C[C@]1(c2cc(NC(=O)c3cnc(OCF)cn3)ccc2F)N=C(N)SCC12CCOCC2

Reference: ChEMBL document CHEMBL4304740, “Structure-Based Design of Selective β-Site Amyloid Precursor Protein Cleaving Enzyme 1 (BACE1) Inhibitors: Targeting the Flap to Gain Selectivity over BACE2” (J Med Chem, 2019)
